≈ marks a conversion by molar mass, not a printed value.
Tests used:
Assay type in all cases: functional
[1] = test system: P388; experiment: Growth inhibition of mouse P388 cells
[2] = test system: BXPC-3; experiment: Growth inhibition of human BXPC3 cells
[3] = test system: MCF7; experiment: Growth inhibition of human MCF7 cells
[4] = test system: SF-268; experiment: Growth inhibition of human SF268 cells
[5] = test system: NCI-H460; experiment: Growth inhibition of human NCI-H460 cells
[6] = test system: KM-20L2; experiment: Growth inhibition of human KM20L2 cells
[7] = test system: DU-145; experiment: Growth inhibition of human DU145 cells

| Compound | GI50 [1] [µg/mL] | GI50 [2] [µg/mL] | GI50 [3] [µg/mL] | GI50 [4] [µg/mL] | GI50 [5] [µg/mL] | GI50 [6] [µg/mL] | GI50 [7] [µg/mL] |
| --- | --- | --- | --- | --- | --- | --- | --- |
| CCCCCCCCCCCC[C@@H](O)[C@H]1CC[C@H]([C@@H](C[C@H](O)CCCCCCCCCCCCC2=CC(C)OC2=O)OC(C)=O)O1 (some centres undefined) | 0.014 (≈ 0.0215 µM) | 7.3 (≈ 11.2 µM) | 0.12 (≈ 0.184 µM) | 11.9 (≈ 18.3 µM) | 0.2 (≈ 0.307 µM) | 0.034 (≈ 0.0522 µM) | 0.0065 (≈ 0.00998 µM) |
| CCCCCCCCCCCC[C@@H](O)[C@H]1CC[C@H]([C@@H](C[C@H](O)CCCCCCCCCC(O)CCC2=CC(C)OC2=O)OC(C)=O)O1 (some centres undefined) [UVARIBONIN] | – | 1.3 (≈ 1.95 µM) | 0.0022 (≈ 0.0033 µM) | 1.4 (≈ 2.1 µM) | 1 (≈ 1.5 µM) | 0.0013 (≈ 0.00195 µM) | 0.0093 (≈ 0.0139 µM) |
| Cc1c(O)c(C=O)c(O)c(C(=O)CCc2ccccc2)c1O | – | 0.3 (≈ 0.999 µM) | 0.3 (≈ 0.999 µM) | 0.55 (≈ 1.83 µM) | 0.52 (≈ 1.73 µM) | 0.36 (≈ 1.2 µM) | 0.33 (≈ 1.1 µM) |

Source: ChEMBL document CHEMBL1144706, “Antineoplastic agents. 558. Ampelocissus sp. cancer cell growth inhibitory constituents” (2008)
